# Laboratory results: patent US20230330077A1, “USE OF SPHINGOSINE-1-PHOSPHATE RECEPTOR AGONIST” (LG CHEM, LTD., priority 2020, published 2023)
# Columns and labels:
# [1] = tested on: oxazolone-induced animal model of atopic dermatitis; test: oxazolone-induced animal model of atopic dermatitis in mice; assay type: in vivo, mice (Balb/c)
# Experimental: An animal model of atopic dermatitis was induced in mice (Balb/c) by the use of oxazolone. With the first sensitization day of oxazolone set as day 0, it was administered orally or transdermally starting on day 7 once a day. When the date of application of oxazolone and the date of administration of the drug were overlapped, the drug was administered about 6 hours after application of oxazolone.
# For all mice, abdominal hair was removed one day before the first application of oxazolone. Then, 1% or 0.2% oxazolone was prepared by the use of a 4:1 ratio of acetone/corn oil, and sensitization and induction on the shaved mouse abdomen and both ears were performed with the same dose and schedule as represented in Table 1 and FIG. 1.
# The test substances (the Test Compound and dexamethasone as a positive control) were prepared for each administration dose as represented in Table 2 below by the use of 0.5% methyl cellulose. In the case of the Test Compound, it was prepared in consideration of the HCl salt form. The test substances were dissolved in 0.5% methyl cellulose and then sonicated.
# The test substances were prepared by dissolving them at the concentration of 0.1% (w/v) in a solution (PEG400:100% ethanol=1:1). 5 mL of PEG400 was added to 10 mg of the test substances and sonicated. When they were dissolved to some extent, 5 mL of 100% ethanol was added thereto and sonicated to dissolve them completely. In addition, the vehicle and the test substances were prepared fresh every day and used.
# [2] = tested on: oxazolone-induced animal model of atopic dermatitis; test: as above; assay type: in vivo, mice (Balb/c); settings: Example 4, Table 3; for Therapeutic effect (Compared to disease-induced group): Ear thickness (Day 21 after administration): reduction in ear thickness
# [3] = Example 4, Table 3, oral administration 1 mg/kg once a day, reduction in ear thickness
# [4] = Example 4, Table 3, oral administration 1 mg/kg once a day, reduction in ear weight after autopsy
# [5] = Example 4, Table 3, oral administration 1 mg/kg once a day, reduction in epidermal thickness
# [6] = Example 4, Table 3, oral administration 1 mg/kg once a day, reduction in the blood level of IgE
# [7] = Example 5 comparative experimentation, Table 4, oral administration 0.1 mg/kg
# [8] = Example 5 comparative experimentation, Table 4, oral administration 0.3 mg/kg
# [9] = Example 5 comparative experimentation, Table 4, oral administration 1 mg/kg
# [10] = Example 5 comparative experimentation, Table 4, oral administration 1 mg/kg, blood level of IgE
compound,measurement,setting,value
"C[C@@H]1C[C@H]2[C@@H]3CCC4=CC(=O)C=C[C@]4(C)[C@@]3(F)[C@@H](O)C[C@]2(C)[C@@]1(O)C(=O)CO [Dexamethasone, dexamethasone, reference compound]",Therapeutic effect (Compared to disease-induced group): Ear thickness (Day 21 after administration),[1]; [3],66%
same,Therapeutic effect (Compared to disease-induced group): Ear weight (Day 21 after administration),[1]; [4],54%
same,Therapeutic effect (Compared to disease-induced group): Epidermal thickness of ear tissue (Day 21 after administration),[1]; [5],55%
same,Therapeutic effect (Compared to disease-induced group): IgE (Day 21 after administration),[1]; [6],12%
"CC(C)n1nc(Cl)c2cc(COc3ccc4c(c3)CCC(CN3CCC(C(=O)O)CC3)=C4Cl)ccc21 [Test Compound, 1-[1-Chloro-6-(3-chloro-1-isopropyl-1H-indazol-5-ylmethoxy)-3,4-dihydro-naphthalen-2-ylmethyl]-piperidine-4-carboxylic acid]",Therapeutic effect (Compared to disease-induced group): Ear thickness (Day 21 after administration),[2]; topical administration 0.01% once a day,63%
same,Therapeutic effect (Compared to disease-induced group): Epidermal thickness of ear tissue (Day 21 after administration),"[2]; topical administration 0.01% once a day, reduction in epidermal thickness",26%
same,Therapeutic effect (Compared to disease-induced group): Ear thickness (Day 21 after administration),[2]; topical administration 0.03% once a day,71%
same,Therapeutic effect (Compared to disease-induced group): IgE (Day 21 after administration),"[2]; topical administration 0.03% once a day, reduction in the blood level of IgE",74%
same,Therapeutic effect (Compared to disease-induced group): Ear thickness (Day 21 after administration),"[1]; Example 4, Table 3, oral administration 0.1 mg/kg once a day, reduction in ear thickness",37%
same,Therapeutic effect (Compared to disease-induced group): Ear weight (Day 21 after administration),"[1]; Example 4, Table 3, oral administration 0.1 mg/kg once a day, reduction in ear weight after autopsy",−2%
same,Therapeutic effect (Compared to disease-induced group): Epidermal thickness of ear tissue (Day 21 after administration),"[1]; Example 4, Table 3, oral administration 0.1 mg/kg once a day, reduction in epidermal thickness",25%
same,Therapeutic effect (Compared to disease-induced group): Mast cell accumulation (Day 21 after administration),"[1]; Example 4, Table 3, oral administration 0.1 mg/kg once a day, reduction in mast cell accumulation, ear tissue",21%
same,Therapeutic effect (Compared to disease-induced group): IgE (Day 21 after administration),"[1]; Example 4, Table 3, oral administration 0.1 mg/kg once a day, reduction in the blood level of IgE",−56%
same,Therapeutic effect (Compared to disease-induced group): Ear thickness (Day 21 after administration),"[1]; Example 4, Table 3, oral administration 0.3 mg/kg once a day, reduction in ear thickness",63%
same,Therapeutic effect (Compared to disease-induced group): Ear weight (Day 21 after administration),"[1]; Example 4, Table 3, oral administration 0.3 mg/kg once a day, reduction in ear weight after autopsy",48%
same,Therapeutic effect (Compared to disease-induced group): Epidermal thickness of ear tissue (Day 21 after administration),"[1]; Example 4, Table 3, oral administration 0.3 mg/kg once a day, reduction in epidermal thickness",56%
same,Therapeutic effect (Compared to disease-induced group): Mast cell accumulation (Day 21 after administration),"[1]; Example 4, Table 3, oral administration 0.3 mg/kg once a day, reduction in mast cell accumulation, ear tissue",34%
same,Therapeutic effect (Compared to disease-induced group): IgE (Day 21 after administration),"[1]; Example 4, Table 3, oral administration 0.3 mg/kg once a day, reduction in the blood level of IgE",38%
same,Therapeutic effect (Compared to disease-induced group): Ear thickness (Day 21 after administration),[1]; [3],61%
same,Therapeutic effect (Compared to disease-induced group): Ear weight (Day 21 after administration),[1]; [4],53%
same,Therapeutic effect (Compared to disease-induced group): Epidermal thickness of ear tissue (Day 21 after administration),[1]; [5],61%
same,Therapeutic effect (Compared to disease-induced group): Mast cell accumulation (Day 21 after administration),"[1]; Example 4, Table 3, oral administration 1 mg/kg once a day, reduction in mast cell accumulation, ear tissue",29%
same,Therapeutic effect (Compared to disease-induced group): IgE (Day 21 after administration),[1]; [6],44%
same,Therapeutic effect (Compared to disease-induced group): Ear weight (Day 21 after administration),"[1]; Example 4, Table 3, topical administration 0.01% once a day, reduction in ear weight after autopsy",65%
same,Therapeutic effect (Compared to disease-induced group): Mast cell accumulation (Day 21 after administration),"[1]; Example 4, Table 3, topical administration 0.01% once a day, reduction in mast cell accumulation, ear tissue",42%
same,Therapeutic effect (Compared to disease-induced group): IgE (Day 21 after administration),"[1]; Example 4, Table 3, topical administration 0.01% once a day, reduction in the blood level of IgE",43%
same,Therapeutic effect (Compared to disease-induced group): Ear weight (Day 21 after administration),"[1]; Example 4, Table 3, topical administration 0.03% once a day, reduction in ear weight after autopsy",72%
same,Therapeutic effect (Compared to disease-induced group): Epidermal thickness of ear tissue (Day 21 after administration),"[1]; Example 4, Table 3, topical administration 0.03% once a day, reduction in epidermal thickness",55%
same,Therapeutic effect (Compared to disease-induced group): Mast cell accumulation (Day 21 after administration),"[1]; Example 4, Table 3, topical administration 0.03% once a day, reduction in mast cell accumulation, ear tissue",59%
same,Therapeutic effect (Compared to disease-induced group): Ear thickness (Day 21 after administration),"[1]; Example 4, Table 3, topical administration 0.1% once a day, reduction in ear thickness",69%
same,Therapeutic effect (Compared to disease-induced group): Ear weight (Day 21 after administration),"[1]; Example 4, Table 3, topical administration 0.1% once a day, reduction in ear weight after autopsy",69%
same,Therapeutic effect (Compared to disease-induced group): Epidermal thickness of ear tissue (Day 21 after administration),"[1]; Example 4, Table 3, topical administration 0.1% once a day, reduction in epidermal thickness",58%
same,Therapeutic effect (Compared to disease-induced group): Mast cell accumulation (Day 21 after administration),"[1]; Example 4, Table 3, topical administration 0.1% once a day, reduction in mast cell accumulation, ear tissue",70%
same,Therapeutic effect (Compared to disease-induced group): IgE (Day 21 after administration),"[1]; Example 4, Table 3, topical administration 0.1% once a day, reduction in the blood level of IgE",71%
same,overall effect in the oxazolone-induced animal model of atopic dermatitis versus positive control,"[1]; Example 4, summary of Table 3 and FIGS. 2 to 6",superior effect in a dose-dependent manner compared to dexamethasone
same,overall effect in the animal model of atopic dermatitis versus comparative compound,"[1]; Example 5, summary of Table 4 and FIG. 7","equal or superior effects even at lower doses compared to the comparative compound, etrasimod"
same,Therapeutic effect (Compared to disease-induced group): Ear thickness (Day 21 after administration),[1]; [7],14%
same,Therapeutic effect (Compared to disease-induced group): Ear weight (Day 21 after administration),[1]; [7],31%
same,Therapeutic effect (Compared to disease-induced group): Epidermal thickness of ear tissue (Day 21 after administration),[1]; [7],21%
same,Therapeutic effect (Compared to disease-induced group): Mast cell accumulation (Day 21 after administration),[1]; [7],27%
same,Therapeutic effect (Compared to disease-induced group): IgE (Day 21 after administration),"[1]; Example 5 comparative experimentation, Table 4, oral administration 0.1 mg/kg, blood level of IgE",31%
same,Therapeutic effect (Compared to disease-induced group): Ear thickness (Day 21 after administration),[1]; [8],29%
same,Therapeutic effect (Compared to disease-induced group): Ear weight (Day 21 after administration),[1]; [8],55%
same,Therapeutic effect (Compared to disease-induced group): Epidermal thickness of ear tissue (Day 21 after administration),[1]; [8],42%
same,Therapeutic effect (Compared to disease-induced group): Mast cell accumulation (Day 21 after administration),[1]; [8],35%
same,Therapeutic effect (Compared to disease-induced group): IgE (Day 21 after administration),"[1]; Example 5 comparative experimentation, Table 4, oral administration 0.3 mg/kg, blood level of IgE",46%
same,Therapeutic effect (Compared to disease-induced group): Ear thickness (Day 21 after administration),[1]; [9],42%
same,Therapeutic effect (Compared to disease-induced group): Ear weight (Day 21 after administration),[1]; [9],69%
same,Therapeutic effect (Compared to disease-induced group): Epidermal thickness of ear tissue (Day 21 after administration),[1]; [9],44%
same,Therapeutic effect (Compared to disease-induced group): Mast cell accumulation (Day 21 after administration),[1]; [9],43%
same,Therapeutic effect (Compared to disease-induced group): IgE (Day 21 after administration),[1]; [10],72%
"O=C(O)C[C@H]1CCc2c1[nH]c1ccc(OCc3ccc(C4CCCC4)c(C(F)(F)F)c3)cc21 [etrasimod, 2-[(3R)-7-[[4-cyclopentyl-3-(trifluoromethyl)phenyl]methoxy]-1,2,3,4-tetrahydrocyclopenta[b]indol-3-yl] acetic acid, reference compound]",Therapeutic effect (Compared to disease-induced group): Ear thickness (Day 21 after administration),[1]; [9],32%
same,Therapeutic effect (Compared to disease-induced group): Ear weight (Day 21 after administration),[1]; [9],50%
same,Therapeutic effect (Compared to disease-induced group): Epidermal thickness of ear tissue (Day 21 after administration),[1]; [9],36%
same,Therapeutic effect (Compared to disease-induced group): Mast cell accumulation (Day 21 after administration),[1]; [9],28%
same,Therapeutic effect (Compared to disease-induced group): IgE (Day 21 after administration),[1]; [10],47%
